In ChEMBL document CHEMBL1143737, “Synthesis and biological evaluation of conformationally constrained analogues of the antitubercular agent ethambutol” (2007):
In brackets after ≈: the same amount, converted by molar mass.

System: Mycobacterium tuberculosis
Assay: Antimycobacterial activity against Mycobacterium tuberculosis H37Rv after 6 days by colorimetric microassay
Assay type: functional
Details: 144 h

## CC[C@@H](CO)NCCN[C@@H](CC)CO [ETHAMBUTOL]
  MIC: 2 µg/mL (≈ 9.79 µM)
